The values below are quoted from earlier work in patent US6794370B2, “Method for treating cancer using camptothecin derivatives and 5-fluorouracil” (priority 1999, dated 2004).

Like-named read-outs stand apart in the source and are kept apart here.

The subject of data set [1] is colorectal cancer. The conditions noted are these: metastatic disease, compared to no antitumour therapy.
Data set [2] deals with colorectal cancer.
For data set [3], the system named is metastatic colorectal cancer. The conditions noted are these: 125 mg/m^2 intravenously.
For data set [4], the system named is colorectal cancer. The conditions noted are these: compared with supportive care only.

In the case of `O=c1[nH]cc(F)c(=O)[nH]1` [5-FU, 5-fluorouracil], the survival time in data set [1] is 11 months. Moreover, in data set [2] (bolus administration), the median survival time is given as 11.3 months and the response rate was 14%. Besides, in data set [2] (infusional administration), the median survival time is recorded as 12.1 months and the response rate is listed as 22%.
Irinotecan [CPT-11]: in data set [3] (first of two studies), the median survival is 12.1 months and the response rate is recorded as 32%. In data set [3] (second of two studies), the median survival is 11.8 months and the response rate is recorded as 26%. Besides, in data set [4], the quality of life result was “better quality of life” and the survival result was “longer survival”.
